{
  "source": "PubChem BioAssay AID743162",
  "about": "(Broad Institute, 2013)",
  "test_system": "Mycobacterium tuberculosis replicating, CFU count, imaging",
  "experiment": "growth inhibition of replicating M. tuberculosis, dose response, CFU by imaging, dry powder, 7108-01 (AID 743162)",
  "settings": "stronger effect = lower value",
  "note": "The source made the active and inactive calls. How the calls were made is not given here.",
  "data": [
    {"compound": "COc1ccc(CNC(=O)Nc2ncc([N+](=O)[O-])s2)cc1", "values": [
      {"measurement": "CFU count", "setting": "CFU at 10 uM, at 10 µM", "result": "1.24e+09"},
      {"measurement": "CFU count", "setting": "at 64 µM", "result": 220000}
    ]},
    {"compound": "CCOC(=O)c1cc(COc2c(Cl)cccc2Cl)on1", "values": [
      {"measurement": "CFU count", "setting": "CFU at 10 uM, at 10 µM", "result": "1.85e+09"},
      {"measurement": "CFU count", "setting": "at 64 µM", "result": "1.7e+09 (inactive)"}
    ]},
    {"compound": "c1ccc(-c2n[nH]c(-c3ccccn3)n2)nc1", "values": [
      {"measurement": "CFU count", "setting": "CFU at 10 uM, at 10 µM", "result": "1.06e+09"},
      {"measurement": "CFU count", "setting": "at 64 µM", "result": "1.3e+09 (inactive)"}
    ]},
    {"compound": "CCC(C)n1nnc2c(=O)oc3ccccc3c21", "note": "(stereo not drawn)", "values": [
      {"measurement": "CFU count", "setting": "CFU at 10 uM, at 10 µM", "result": "8.38e+08"},
      {"measurement": "CFU count", "setting": "at 64 µM", "result": "6.7e+08 (inactive)"}
    ]},
    {"compound": "COC(=O)C(C)Oc1ccc2cc(-c3ccccc3)c(=O)oc2c1", "note": "(stereo not drawn)", "values": [
      {"measurement": "CFU count", "setting": "CFU at 10 uM, at 10 µM", "result": "2.01e+09"},
      {"measurement": "CFU count", "setting": "at 64 µM", "result": "1e+09 (inactive)"}
    ]},
    {"compound": "COc1ccc(CCNc2cc(-c3ccccc3)nc3ncnn23)cc1", "values": [
      {"measurement": "CFU count", "setting": "CFU at 10 uM, at 10 µM", "result": "1.18e+09"},
      {"measurement": "CFU count", "setting": "at 64 µM", "result": "4.3e+08 (inactive)"}
    ]},
    {"compound": "Cn1c(NC(=O)c2ccccc2)nc2ccccc21", "values": [
      {"measurement": "CFU count", "setting": "CFU at 10 uM, at 10 µM", "result": "1.98e+09"},
      {"measurement": "CFU count", "setting": "at 64 µM", "result": 0}
    ]},
    {"compound": "CSc1nsc(SCc2ccc(C(=O)Nc3cccc(C)c3)cc2)n1", "values": [
      {"measurement": "CFU count", "setting": "CFU at 10 uM, at 10 µM", "result": "-1.9e+09"},
      {"measurement": "CFU count", "setting": "at 64 µM", "result": "1.31e+06"}
    ]},
    {"compound": "CCOc1ccc(OC(=O)c2ccc3c(=O)n4c(nc3c2)CCC4)cc1", "values": [
      {"measurement": "CFU count", "setting": "CFU at 10 uM, at 10 µM", "result": "1.36e+09"},
      {"measurement": "CFU count", "setting": "at 64 µM", "result": "1e+09 (inactive)"}
    ]}
  ]
}
